For 46 molecules, photoluminescence quantum yield results are on record in the Deep4Chem optical property database.

The series is described as follows: photoluminescence quantum yield (fraction); solvent given as SMILES.

Consider `CCCCN(CCCC)c1ccc2c#cc3cc4c#cc5ccc(C(F)(F)F)cc5c#cc#cc5cc(N(CCCC)CCCC)ccc5c#cc4cc3c#cc3ccc(C(F)(F)F)cc3c#cc#cc2c1`, for which, where the note is “in ClCCl”, the photoluminescence quantum yield was determined as 0.33.
`COc1ccc(C2=[N+]3C(=Nc4c(-c5cc(OC)c(OC)c(OC)c5)c(Br)c(-c5ccc(OC)cc5)n4[B-]3(F)F)C(c3cc(OC)c(OC)c(OC)c3)=C2Br)cc1` showed a photoluminescence quantum yield (in Cc1ccccc1) of 0.002.
In the case of `CC(C)(C)c1ccc(-n2c(-c3ccc(N(c4ccc(-c5ccc(N(c6ccc(-c7nc8c9ccccc9c9ccccc9c8n7-c7ccc(C(C)(C)C)cc7)cc6)c6ccc(-c7nc8c9ccccc9c9ccccc9c8n7-c7ccc(C(C)(C)C)cc7)cc6)cc5)cc4)c4ccc(-c5nc6c7ccccc7c7ccccc7c6n5-c5ccc(C(C)(C)C)cc5)cc4)cc3)nc3c4ccccc4c4ccccc4c32)cc1`, the photoluminescence quantum yield (in ClCCl) came out at 0.451.
As for `[O-][n+]1c(/C=C/c2ccc3ccccc3c2)nc(N2CCOCC2)c2c1CCCC2`, the photoluminescence quantum yield (in ClCCl) came to 0.05.
On to `CCc1c(C)c2n(c1C)[B-](F)(F)[N+]1=C(C=C3C=Cc4ccccc43)C=CC1=C2C`, for which the photoluminescence quantum yield (in C1CCCCC1) came to 0.02.
Molecule `COc1cccc2cc(C)c3c4ccccc4n(C)c3c12` returned a photoluminescence quantum yield (in ClCCl) of 0.215.
In the case of `CC(C)(C)c1ccc2c(c1)c1cc(C(C)(C)C)ccc1n2-c1ccc(C#Cc2ccc(C#Cc3ccc(-n4c5ccc(C(C)(C)C)cc5c5cc(C(C)(C)C)ccc54)cc3)cc2)cc1`, the photoluminescence quantum yield was 0.67 (in CC#N); 0.89 (in CCCCC); 0.41 (in CO); 0.86 (in Cc1ccccc1); 0.69 (in ClC(Cl)Cl); 0.89 (in ClCCl).
As to `CC(C)(C)c1ccc2c(c1)sc1[n+]2[B-](F)(F)n2c(c3cccc4c(Br)ccc2c43)=N1`, the photoluminescence quantum yield was 0.63 (in C1CCOC1); 0.64 (in CC#N); 0.68 (in CCCCCC); 0.64 (in Cc1ccccc1); 0.72 (in ClCCl).
`O=C1c2ccccc2C2=Nc3ccc4ccccc4[n+]3[B-](F)(F)N12` yielded a photoluminescence quantum yield (in ClCCl) of 0.74.
As for `Cc1c(COC(=O)c2ccccc2)n2c(OCC(=O)c3ccccc3)c(C)c(=O)n2c1=O`, the photoluminescence quantum yield (in CCO) stood at 0.839.
Under “in ClCCl”, `FC(F)(F)c1ccc(-n2c(-c3ccc(N(c4ccc(-c5ccc(N(c6ccc(-c7nc8c9ccccc9c9ccccc9c8n7-c7ccc(C(F)(F)F)cc7)cc6)c6ccc(-c7nc8c9ccccc9c9ccccc9c8n7-c7ccc(C(F)(F)F)cc7)cc6)cc5)cc4)c4ccc(-c5nc6c7ccccc7c7ccccc7c6n5-c5ccc(C(F)(F)F)cc5)cc4)cc3)nc3c4ccccc4c4ccccc4c32)cc1` displayed a photoluminescence quantum yield of 0.383.
With `CCCN1/C(=C/C=C(/C=C/C2=[N+](CCC)c3ccccc3C2(C)C)c2ccncc2)C(C)(C)c2ccccc21`, the photoluminescence quantum yield is, setting by setting: (in CO) 0.24; (in CS(C)=O) 0.15; (in O) 0.07.
In the case of `CN(C)c1ccc(-c2ccc(-c3ccc(N(C)C)cc3)c3nc(-c4ccccc4)c(-c4ccccc4)nc23)cc1`, the photoluminescence quantum yield (in ClC(Cl)Cl) turned out to be 0.3.
As to `N#Cc1cc(-c2ccc(/C=C/c3ccc(N(c4ccccc4)c4ccccc4)cc3)c(C#N)c2)ccc1/C=C/c1ccc(N(c2ccccc2)c2ccccc2)cc1`, the photoluminescence quantum yield (in ClCCl) was determined as 0.37.
For `c1ccc(-n2c3c(c4c2-c2ccccc2C42c4ccccc4-c4ccccc42)C2(c4ccccc4-c4ccccc42)c2ccccc2-3)cc1`, the photoluminescence quantum yield (in C1CCOC1) turned out to be 0.37.
Take `O=C1C2=C(O[B-](F)(F)[n+]3c2ccc2ccccc23)c2cccc3c(N4CCOCC4)ccc1c23`: the photoluminescence quantum yield runs as follows: (in C1CCOC1) 0.53; (in CC#N) 0.47; (in CCO) 0.45; (in CO) 0.44; (in ClCCl) 0.5.
Take `O=C1Cc2ccc(cc2)CC(=O)Cc2ccc(c3nsnc23)C1`: the photoluminescence quantum yield runs as follows: (in C1CCCCC1) 0.85; (in CC#N) 0.45; (in ClC(Cl)Cl) 0.68.
Under “in ClCCl”, `O=P1(c2ccccc2)C2=C(c3ccccc31)S(=O)(=O)c1ccccc12` (centres undefined) returned a photoluminescence quantum yield of 0.98.
On to `COCCC1(CCOC)c2cc(-c3ccc(OC)cc3)ccc2-c2ccc(-c3ccc4c(c3)C(CCOC)(CCOC)c3cc(-c5ccc(OC)cc5)ccc3-4)cc21`, for which, for the setting “in CN(C)C=O”, the photoluminescence quantum yield is 0.95.
In the case of `Cc1cc(-n2c3ccccc3c3cc4c(cc32)C2c3ccccc3C4c3ccccc32)c(C)cc1-c1nc(-c2ccccc2)nc(-c2ccccc2)n1`, the photoluminescence quantum yield is, setting by setting: (in Cc1ccccc1) 0.46; (in O=P(c1ccccc1)(c1ccccc1)c1ccccc1Oc1ccccc1P(=O)(c1ccccc1)c1ccccc1) 0.3.
For the molecule `COc1cc(/C=C2/SC(=O)NC2=O)cc(OC)c1O`, the photoluminescence quantum yield runs as follows: (in C1CCCCC1) 0.032; (in C1COCCO1) 0.03; (in CC#N) 0.02; (in CN(C)C=O) 0.042; (in CO) 0.034; (in O) 0.027. The molecule also registered a photoluminescence quantum yield (in OCC(O)CO) of 0.38 and a photoluminescence quantum yield (in OCCO) of 0.108.
Take `C(#Cc1cccc2cc(-c3ccccc3)c3cc(-c4cc[b-]5c(c4)c(-c4ccccc4)cc4cccc(C#Cc6ccccc6)[n+]54)cc[b-]3[n+]12)c1ccccc1`: the photoluminescence quantum yield (in C1CCCCC1) stood at 0.02.
Regarding `CN1c2cc3nc4cc(Br)c(Br)cc4nc3cc2N(C)C1(C)C`, the photoluminescence quantum yield (in CCO) stood at 0.11.
`Cc1cc2ccccc2cc1C` had a photoluminescence quantum yield (in C1CCCCC1) of 0.56.
`C[C@]12SC(=O)C=C1c1nc(-c3ccccc3O)[nH]c1C1=CC(=O)S[C@@]12C` displayed a photoluminescence quantum yield (in CC#N) of 0.01.
Consider `COC(=O)c1cc(=O)n(C)c2cc(-c3cccc(OC)c3)sc12`, for which the photoluminescence quantum yield reads like this: (in CC#N) 0.32; (in ClCCl) 0.48.
With `Fc1nc(F)c(F)c(C#Cc2cc3c(cc2C#Cc2c(F)c(F)nc(F)c2F)OC2(CCCCC2)O3)c1F`, the photoluminescence quantum yield (in CC#N) was 0.9.
Consider `CN(C)c1ccc(/C=C/c2cnc(-c3ccncc3)o2)cc1`, for which the photoluminescence quantum yield (in ClCCl) stood at 0.65.
Consider `CCCCCCC1(CCCCCC)c2cc(-c3nc(-c4ccc5c(c4)C(CCCCCC)(CCCCCC)c4cc(N6c7ccccc7Oc7ccccc76)ccc4-5)nc(-c4ccc5c(c4)C(CCCCCC)(CCCCCC)c4cc(N6c7ccccc7Oc7ccccc76)ccc4-5)n3)ccc2-c2ccc(N3c4ccccc4Oc4ccccc43)cc21`, for which the photoluminescence quantum yield runs as follows: (in C1CCOC1) 0.02; (in CCCCCC) 0.52; (in Cc1ccccc1) 0.45; (in ClCCl) 0.01.
As for `CCCCCCCCOC(=O)c1ccc(-c2cc3ccc4cc(-c5ccc(C(=O)OCCCCCCCC)cc5)cc5ccc(c2)c3c45)cc1`, for the setting “in Cc1ccccc1”, the photoluminescence quantum yield was 0.33.
Take `CCc1c(C)c2n(c1C)[B-](F)(F)[N+]1=C(NCc3ccc(OC)cc3)C=CC1=C2C`: the photoluminescence quantum yield was determined as 0.65 (in CC#N); 0.73 (in CCCCCC); 0.59 (in CCOC(C)=O); 0.59 (in CO); 0.61 (in ClCCl).
As for `COc1ccc(/C=C(\C)c2nc3ccccc3o2)cc1`, the photoluminescence quantum yield (in C1CCCCC1) was 0.002.
Turning to `COc1ccc2cc(C#CC3=C4CCc5ccccc5C4=[O+][B-](F)(F)O3)ccc2c1`, the photoluminescence quantum yield (in ClCCl) was 0.16.
Turning to `O=c1c2ccccc2nc2n1[B-](F)(F)[n+]1ccccc1-2`, the photoluminescence quantum yield reads like this: (in CC#N) 0.78; (in ClCCl) 0.99.
In the case of `COc1ccc(C#Cc2c3ccccc3c(C#Cc3ccc(OC)cc3)c3cc4ccccc4cc23)cc1`, the photoluminescence quantum yield (in ClCCl) was 0.85.
As to `CCOc1cc(C=C2c3ccccc3-c3ccccc32)c(OCC)cc1C=C1c2ccccc2C=Cc2ccccc21`, the photoluminescence quantum yield (in C1CCOC1) was determined as 0.00012.
For the molecule `c1cc2ccc3cccc4c(-c5cc(-c6nccs6)nc(-c6nccs6)c5)cc(c1)c2c34`, the photoluminescence quantum yield is, setting by setting: (in CC#N) 0.645; (in CCCCCC) 0.51; (in CO) 0.214; (in ClC(Cl)Cl) 0.627.
On to `N#Cc1nn(-c2cc(F)cc(F)c2)nc1N1CCCC1`, for which, where the note is “in CC#N”, the photoluminescence quantum yield was determined as 0.837.
As to `O=C(O)CCCc1cc(C#Cc2ccccc2)c2ccc3c(C#Cc4ccccc4)cc(C#Cc4ccccc4)c4ccc1c2c34`, the photoluminescence quantum yield runs as follows: (in CS(C)=O) 0.72; (in ClC(Cl)(Cl)Cl) 0.56.
On to `CC(C)(C)c1ccc2c(c1)c1cc(C(C)(C)C)ccc1n2-c1ccc2oc3nc4oc5ccc(C(F)(F)F)cc5c4cc3c2c1`, for which the photoluminescence quantum yield by setting is: (in C1CCCCC1) 0.113; (in C1CCOC1) 0.073; (in CC#N) 0.032; (in CS(C)=O) 0.124; (in Cc1ccccc1) 0.094; (in ClC(Cl)Cl) 0.058.
On to `Cc1nc2c(ccc3ccc(O)cc32)oc1=O`, for which the photoluminescence quantum yield (in c1ccccc1) was 0.358.
Under “in CS(C)=O”, `COc1cc2sc3nc(-c4ccccc4)sc3c2cc1OC` came in with a photoluminescence quantum yield of 0.52.
Molecule `CC(C)CCCC(C)CCN1C(=O)c2ccc3c(-c4ccccc4)c4c5ccc6c7c(ccc(c(-c8ccccc8)c4c4ccc(c2c34)C1=O)c75)C(=O)N(CCC(C)CCCC(C)C)C6=O` (centres undefined) showed a photoluminescence quantum yield (in ClCCl) of 0.13.
`COc1ccc(-c2csc(/C(C#N)=C\Nc3ccc(C#N)cc3)n2)cc1`: the photoluminescence quantum yield amounted to 0.001 (in CC#N); 0.001 (in CCO); 0.003 (in CN(C)C=O); 0.003 (in Cc1ccccc1); 0.001 (in ClCCl).
In turn, `CCC1=C(C)C2=C(c3ccc(-c4c5ccccc5c(-c5ccccc5)c5ccccc45)cc3)c3c(C)c(CC)c(C)n3[B-](F)(F)[N+]2=C1C` displayed a photoluminescence quantum yield (in CC#N) of 0.696; a photoluminescence quantum yield (in CCCCCC) of 0.756; a photoluminescence quantum yield (in CCO) of 0.841; a photoluminescence quantum yield (in CN(C)C=O) of 0.232; a photoluminescence quantum yield (in Cc1ccccc1) of 0.781; a photoluminescence quantum yield (in ClCCl) of 0.744.
For the molecule `CN(C)c1ccc(/C=C/c2ccccc2)cc1`, the photoluminescence quantum yield by setting is: (in CC#N) 0.04; (in CCCCCC) 0.03.
